Critical pressure and Critical temperature data for four compounds are collected here from the NIST ThermoML archive (doi:10.1016/j.fluid.2018.05.011).

Numbers after ± are expanded uncertainties.

The conditions of the data set: Liquid; Resistive pulse heating.
With `OCCOCCOCCOCCOCCO` [3,6,9,12-tetraoxatetradecane-1,14-diol], the Critical pressure is 2130 ± 90 kPa and the Critical temperature was 842 ± 13 K.
For `OCCOCCOCCOCCOCCOCCO` [3,6,9,12,15-pentaoxaheptadecane-1,17-diol], the Critical pressure was 1820 ± 70 kPa and the Critical temperature is given as 868 ± 13 K.
Turning to `OCCOCCOCCO` [triethylene glycol], the Critical pressure was found to be 3570 ± 140 kPa and the Critical temperature is given as 788 ± 12 K.
Taken in the same sequence, the figures for `OCCOCCO` [diethylene glycol] were 4830 ± 190 kPa and 753 ± 11 K.
